Measurements: patent publication US12157741B2, “Macrocyclic inhibitors of DYRK1A” (DANA-FARBER CANCER INSTITUTE, INC., priority 2018, dated 2024)
Where two headings read alike, the source gives them in different places.

Legend:
Format in all cases: binding
[1] = biological target: various enzymes (Homo sapiens, UniProt P23458); settings: compound 1 uM
Description: (§1) Ambit profiling was conducted in accordance with the manufacturer's instructions.

[2] = biological target: various enzymes (Homo sapiens, UniProt Q9BWU1); settings: compound 1 uM
Description: as §1

[3] = biological target: various enzymes (Homo sapiens, UniProt Q9BVS4); settings: compound 1 uM
Description: as §1

[4] = biological target: various enzymes (Homo sapiens, UniProt P17948); settings: compound 1 uM
Description: as §1

[5] = biological target: various enzymes (Homo sapiens, UniProt P42345); settings: compound 1 uM
Description: as §1

[6] = biological target: various enzymes (Homo sapiens, UniProt P22694); settings: compound 1 uM
Description: as §1

[7] = biological target: T1, various enzymes (Homo sapiens, UniProt Q08881); settings: compound 1 uM
T1 sequence (Q08881 1-620): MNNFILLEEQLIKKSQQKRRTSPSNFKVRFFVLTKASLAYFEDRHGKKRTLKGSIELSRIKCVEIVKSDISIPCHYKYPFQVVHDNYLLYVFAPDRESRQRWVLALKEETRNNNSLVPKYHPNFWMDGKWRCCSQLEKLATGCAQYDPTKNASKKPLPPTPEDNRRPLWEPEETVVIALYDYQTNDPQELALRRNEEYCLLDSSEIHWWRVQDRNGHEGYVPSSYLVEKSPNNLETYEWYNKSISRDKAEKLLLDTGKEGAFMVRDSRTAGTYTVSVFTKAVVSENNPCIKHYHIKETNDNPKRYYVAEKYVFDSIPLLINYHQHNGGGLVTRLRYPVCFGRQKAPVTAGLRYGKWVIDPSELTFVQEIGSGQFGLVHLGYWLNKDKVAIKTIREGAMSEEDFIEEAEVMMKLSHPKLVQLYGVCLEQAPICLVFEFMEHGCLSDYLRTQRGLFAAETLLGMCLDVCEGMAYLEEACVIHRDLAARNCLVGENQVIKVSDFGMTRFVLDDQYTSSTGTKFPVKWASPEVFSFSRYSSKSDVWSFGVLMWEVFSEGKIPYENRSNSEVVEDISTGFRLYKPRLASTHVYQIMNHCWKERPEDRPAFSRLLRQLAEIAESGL
Description: as §1

[8] = biological target: various enzymes (Homo sapiens, UniProt Q9UHD2); settings: compound 1 uM
Description: as §1

[9] = biological target: various enzymes (Homo sapiens, UniProt Q96RR4); settings: compound 1 uM
Description: as §1

[10] = biological target: various enzymes (Homo sapiens, UniProt P00533, L861Q)
Description: as §1

[11] = biological target: various enzymes (Homo sapiens, UniProt P29376); settings: compound 1 uM
Description: as §1

[12] = biological target: various enzymes (Homo sapiens, UniProt P41743); settings: compound 1 uM
Description: as §1

[13] = biological target: various enzymes (Homo sapiens, UniProt O00329); settings: compound 1 uM
Description: as §1

[14] = biological target: various enzymes (Homo sapiens, UniProt O14920); settings: compound 1 uM
Description: as §1

[15] = biological target: various enzymes (Homo sapiens, UniProt P00533, T790M)
Description: as §1

[16] = biological target: various enzymes (Homo sapiens, UniProt O76039); settings: compound 1 uM
Description: as §1

[17] = biological target: various enzymes (Homo sapiens, UniProt Q9H0K1); settings: compound 1 uM
Description: as §1

[18] = biological target: various enzymes (Homo sapiens, UniProt P23443); settings: compound 1 uM
Description: as §1

[19] = biological target: various enzymes (Homo sapiens, UniProt Q8N752); settings: compound 1 uM
Description: as §1

[20] = biological target: various enzymes (Homo sapiens, UniProt P00519, T315I)
Description: as §1

[21] = biological target: various enzymes (Homo sapiens, UniProt P80192); settings: compound 1 uM
Description: as §1

[22] = biological target: T2, various enzymes (Homo sapiens, UniProt P36888, D835V, form not given)
T2 construct: other: FLT3(ITD, D835V); 1 uM; other: compound 1 uM
Description: as §1

[23] = biological target: various enzymes (Homo sapiens, UniProt Q9HBY8); settings: compound 1 uM
Description: as §1

[24] = biological target: various enzymes (Homo sapiens, UniProt Q8IY84); settings: compound 1 uM
Description: as §1

[25] = biological target: various enzymes (Homo sapiens, UniProt O00506); settings: compound 1 uM
Description: as §1

[26] = biological target: various enzymes (Homo sapiens, UniProt O15264); settings: compound 1 uM
Description: as §1

[27] = biological target: various enzymes (Homo sapiens, UniProt P07949, M918T)
Description: as §1

[28] = biological target: various enzymes (Homo sapiens, UniProt Q9BX84); settings: compound 1 uM
Description: as §1

[29] = biological target: various enzymes (Homo sapiens, UniProt P51812); settings: compound 1 uM
Description: as §1

[30] = biological target: various enzymes (Homo sapiens, UniProt P09619); settings: compound 1 uM
Description: as §1

[31] = biological target: various enzymes (Homo sapiens, UniProt Q8N4C8); settings: compound 1 uM
Description: as §1

[32] = biological target: various enzymes (Homo sapiens, UniProt Q00526); settings: compound 1 uM
Description: as §1

[33] = biological target: various enzymes (Homo sapiens, UniProt Q00535); settings: compound 1 uM
Description: as §1

[34] = biological target: various enzymes (Homo sapiens, UniProt P07949, V804L)
Description: as §1

Sequence of various enzymes (Homo sapiens, UniProt P51812) (P51812 whole entry): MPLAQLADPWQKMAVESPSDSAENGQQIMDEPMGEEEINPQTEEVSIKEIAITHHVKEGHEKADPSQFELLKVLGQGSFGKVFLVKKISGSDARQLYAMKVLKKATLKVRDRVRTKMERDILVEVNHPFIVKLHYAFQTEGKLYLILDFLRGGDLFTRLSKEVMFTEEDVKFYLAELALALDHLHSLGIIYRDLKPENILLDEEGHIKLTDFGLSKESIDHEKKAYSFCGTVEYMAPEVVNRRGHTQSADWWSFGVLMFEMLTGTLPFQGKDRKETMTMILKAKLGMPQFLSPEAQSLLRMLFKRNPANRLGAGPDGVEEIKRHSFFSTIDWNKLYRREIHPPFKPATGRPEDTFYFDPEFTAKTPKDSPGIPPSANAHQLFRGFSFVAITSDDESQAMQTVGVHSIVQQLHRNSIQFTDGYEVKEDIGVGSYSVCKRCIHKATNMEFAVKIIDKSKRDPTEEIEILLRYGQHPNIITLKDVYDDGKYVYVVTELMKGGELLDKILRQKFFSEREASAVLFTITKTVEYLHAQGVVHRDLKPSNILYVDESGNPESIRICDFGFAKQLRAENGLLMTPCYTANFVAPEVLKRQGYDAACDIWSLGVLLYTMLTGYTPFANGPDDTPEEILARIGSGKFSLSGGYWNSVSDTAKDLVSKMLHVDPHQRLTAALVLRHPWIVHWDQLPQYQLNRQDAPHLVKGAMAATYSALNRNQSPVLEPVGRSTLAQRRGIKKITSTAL
Sequence of various enzymes (Homo sapiens, UniProt P23458) (P23458 whole entry): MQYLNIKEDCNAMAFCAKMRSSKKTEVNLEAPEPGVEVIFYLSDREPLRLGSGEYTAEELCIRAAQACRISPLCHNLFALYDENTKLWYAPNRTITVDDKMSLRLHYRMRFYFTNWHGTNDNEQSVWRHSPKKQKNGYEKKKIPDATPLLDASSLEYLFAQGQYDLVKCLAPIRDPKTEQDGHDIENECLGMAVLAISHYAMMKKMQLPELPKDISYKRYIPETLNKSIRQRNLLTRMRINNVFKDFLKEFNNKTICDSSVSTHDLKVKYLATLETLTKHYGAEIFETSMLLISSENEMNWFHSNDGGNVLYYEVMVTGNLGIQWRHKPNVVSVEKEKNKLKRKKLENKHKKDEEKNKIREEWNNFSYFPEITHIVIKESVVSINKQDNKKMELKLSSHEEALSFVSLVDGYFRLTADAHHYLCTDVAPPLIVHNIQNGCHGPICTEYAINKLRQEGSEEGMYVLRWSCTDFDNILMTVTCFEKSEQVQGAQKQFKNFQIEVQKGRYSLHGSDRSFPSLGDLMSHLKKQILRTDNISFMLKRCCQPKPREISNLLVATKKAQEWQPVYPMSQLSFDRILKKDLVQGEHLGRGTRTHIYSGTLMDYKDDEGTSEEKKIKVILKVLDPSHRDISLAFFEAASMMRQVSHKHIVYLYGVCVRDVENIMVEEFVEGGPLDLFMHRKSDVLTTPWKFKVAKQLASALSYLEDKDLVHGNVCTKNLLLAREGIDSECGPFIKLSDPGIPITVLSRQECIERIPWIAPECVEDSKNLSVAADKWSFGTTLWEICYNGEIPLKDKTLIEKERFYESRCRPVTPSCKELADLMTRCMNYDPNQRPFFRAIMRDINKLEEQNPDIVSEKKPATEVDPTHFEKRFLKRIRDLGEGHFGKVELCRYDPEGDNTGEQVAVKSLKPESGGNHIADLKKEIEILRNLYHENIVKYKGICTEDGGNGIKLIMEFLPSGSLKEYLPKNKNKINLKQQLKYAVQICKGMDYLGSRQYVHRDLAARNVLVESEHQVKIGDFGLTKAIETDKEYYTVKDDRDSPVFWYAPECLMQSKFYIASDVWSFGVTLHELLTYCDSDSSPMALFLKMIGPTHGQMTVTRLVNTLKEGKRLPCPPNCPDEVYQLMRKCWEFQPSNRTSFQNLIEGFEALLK
Sequence of various enzymes (Homo sapiens, UniProt O14920) (O14920 whole entry): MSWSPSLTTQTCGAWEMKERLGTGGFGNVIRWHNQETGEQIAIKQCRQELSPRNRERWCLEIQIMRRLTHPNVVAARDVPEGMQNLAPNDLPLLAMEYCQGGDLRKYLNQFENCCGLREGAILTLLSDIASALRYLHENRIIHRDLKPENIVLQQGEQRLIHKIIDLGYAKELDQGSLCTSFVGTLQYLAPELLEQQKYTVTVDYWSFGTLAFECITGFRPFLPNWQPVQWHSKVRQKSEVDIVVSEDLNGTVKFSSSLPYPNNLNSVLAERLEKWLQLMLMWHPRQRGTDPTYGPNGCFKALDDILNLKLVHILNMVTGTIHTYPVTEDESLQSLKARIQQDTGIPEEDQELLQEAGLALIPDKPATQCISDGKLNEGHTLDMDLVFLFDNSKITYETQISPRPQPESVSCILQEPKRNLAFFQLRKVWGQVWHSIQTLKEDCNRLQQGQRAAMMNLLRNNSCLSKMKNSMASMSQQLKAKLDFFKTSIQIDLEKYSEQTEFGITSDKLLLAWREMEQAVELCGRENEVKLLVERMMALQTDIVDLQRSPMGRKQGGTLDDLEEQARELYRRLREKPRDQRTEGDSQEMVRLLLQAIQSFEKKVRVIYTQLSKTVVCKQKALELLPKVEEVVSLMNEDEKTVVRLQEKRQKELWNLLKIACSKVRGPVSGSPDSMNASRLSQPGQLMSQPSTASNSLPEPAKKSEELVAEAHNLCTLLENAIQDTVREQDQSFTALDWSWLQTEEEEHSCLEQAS
Sequence of various enzymes (Homo sapiens, UniProt O15264) (O15264 whole entry): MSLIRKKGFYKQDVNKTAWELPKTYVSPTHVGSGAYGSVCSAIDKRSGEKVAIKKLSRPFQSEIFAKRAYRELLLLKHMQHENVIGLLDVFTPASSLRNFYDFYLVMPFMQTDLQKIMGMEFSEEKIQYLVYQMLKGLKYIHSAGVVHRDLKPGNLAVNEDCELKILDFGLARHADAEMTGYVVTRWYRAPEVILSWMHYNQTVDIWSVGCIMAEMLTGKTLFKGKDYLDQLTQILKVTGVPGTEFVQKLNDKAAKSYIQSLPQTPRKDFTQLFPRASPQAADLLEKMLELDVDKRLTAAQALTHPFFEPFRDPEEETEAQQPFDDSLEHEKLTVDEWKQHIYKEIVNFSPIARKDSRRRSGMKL
Sequence of various enzymes (Homo sapiens, UniProt O00506) (O00506 whole entry): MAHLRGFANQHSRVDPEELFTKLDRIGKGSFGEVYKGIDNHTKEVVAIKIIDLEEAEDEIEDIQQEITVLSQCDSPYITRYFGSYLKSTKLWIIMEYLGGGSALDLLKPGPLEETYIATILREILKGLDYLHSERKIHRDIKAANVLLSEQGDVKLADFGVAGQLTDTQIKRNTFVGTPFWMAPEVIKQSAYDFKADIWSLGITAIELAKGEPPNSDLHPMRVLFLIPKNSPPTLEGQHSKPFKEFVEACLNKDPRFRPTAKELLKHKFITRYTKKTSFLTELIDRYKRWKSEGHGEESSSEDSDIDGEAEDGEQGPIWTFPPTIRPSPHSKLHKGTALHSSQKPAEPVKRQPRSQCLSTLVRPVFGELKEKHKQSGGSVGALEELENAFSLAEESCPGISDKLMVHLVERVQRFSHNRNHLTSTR
Sequence of various enzymes (Homo sapiens, UniProt P07949, V804L) (P07949 29-1114 V804L): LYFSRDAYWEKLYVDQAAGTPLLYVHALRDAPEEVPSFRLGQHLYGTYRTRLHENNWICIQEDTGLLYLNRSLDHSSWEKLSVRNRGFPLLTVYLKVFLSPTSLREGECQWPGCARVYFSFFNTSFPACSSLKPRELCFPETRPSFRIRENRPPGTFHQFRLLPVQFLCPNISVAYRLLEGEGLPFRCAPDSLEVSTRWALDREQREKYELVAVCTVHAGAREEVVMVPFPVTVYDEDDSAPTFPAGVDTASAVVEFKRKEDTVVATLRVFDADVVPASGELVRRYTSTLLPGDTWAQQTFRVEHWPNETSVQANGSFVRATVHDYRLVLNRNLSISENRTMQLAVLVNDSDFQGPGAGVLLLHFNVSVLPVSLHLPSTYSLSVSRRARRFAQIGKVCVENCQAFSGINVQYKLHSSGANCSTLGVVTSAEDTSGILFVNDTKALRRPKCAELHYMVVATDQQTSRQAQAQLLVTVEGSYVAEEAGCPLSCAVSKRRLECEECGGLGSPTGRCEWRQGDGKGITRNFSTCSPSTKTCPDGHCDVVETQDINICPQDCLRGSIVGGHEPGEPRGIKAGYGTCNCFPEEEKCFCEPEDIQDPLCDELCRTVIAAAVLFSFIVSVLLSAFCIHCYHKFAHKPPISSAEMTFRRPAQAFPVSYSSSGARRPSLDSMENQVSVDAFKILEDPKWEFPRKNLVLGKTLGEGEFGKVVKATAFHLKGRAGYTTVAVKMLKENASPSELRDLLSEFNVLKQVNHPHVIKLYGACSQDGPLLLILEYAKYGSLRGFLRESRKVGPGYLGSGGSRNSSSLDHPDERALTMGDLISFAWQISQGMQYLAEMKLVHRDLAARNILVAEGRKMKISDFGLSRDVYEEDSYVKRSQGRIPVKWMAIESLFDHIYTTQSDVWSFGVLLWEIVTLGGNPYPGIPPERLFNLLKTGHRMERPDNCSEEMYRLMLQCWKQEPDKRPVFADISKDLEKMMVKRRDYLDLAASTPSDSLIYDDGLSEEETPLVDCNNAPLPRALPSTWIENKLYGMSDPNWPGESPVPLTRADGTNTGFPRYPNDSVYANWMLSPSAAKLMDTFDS
Sequence of various enzymes (Homo sapiens, UniProt Q8N752) (Q8N752 whole entry): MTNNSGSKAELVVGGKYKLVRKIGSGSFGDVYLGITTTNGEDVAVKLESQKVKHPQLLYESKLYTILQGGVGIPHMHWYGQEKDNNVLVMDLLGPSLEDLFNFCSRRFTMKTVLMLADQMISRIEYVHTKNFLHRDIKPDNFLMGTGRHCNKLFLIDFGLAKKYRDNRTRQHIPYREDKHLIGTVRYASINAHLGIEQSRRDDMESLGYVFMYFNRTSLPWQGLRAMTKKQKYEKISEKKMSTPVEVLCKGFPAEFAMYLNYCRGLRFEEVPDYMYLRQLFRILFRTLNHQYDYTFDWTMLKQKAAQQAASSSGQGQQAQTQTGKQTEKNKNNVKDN
Sequence of various enzymes (Homo sapiens, UniProt P07949, M918T) (P07949 29-1114 M918T): as the sequence (P07949 29-1114 V804L) above, with L776V, M890T counted along it

## CC(C)N1Cc2nn(C)cc2-c2cnc3[nH]cc(c3c2)-c2cn(nc2C(F)(F)F)CCCC1=O [Compound 45, (Z)-5-isopropyl-31-methyl-13-(trifluoromethyl)-11H,21H,31H-5-aza-2(3,5)-pyrrolo[2,3-b]pyridina-1(4,1),3(4,3)-dipyrazolacyclononaphan-6-one]
[1]
  Ambit profiling: JAK1(JH1domain-catalytic): 36
  Ambit profiling: JAK1(JH2domain-pseudokinase): 65
[2]
  Ambit profiling: CDK11: 100
[3]
  Ambit profiling: RIOK2: 74
[4]
  Ambit profiling: FLT1: 5.4
[5]
  Ambit profiling: MTOR: 69
[6]
  Ambit profiling: PKAC-beta: 54
[7]
  Ambit profiling: ITK: 38
[8]
  Ambit profiling: TBK1: 0
[9]
  Ambit profiling: CAMKK2: 5.8
[10]; compound 1 uM
  Ambit profiling: EGFR(L861Q): 28
[11]
  Ambit profiling: LTK: 18
[12]
  Ambit profiling: PRKCI: 9.1
[13]
  Ambit profiling: PIK3CD: 92
[14]
  Ambit profiling: IKK-beta: 100
[15]; compound 1 uM
  Ambit profiling: EGFR(T790M): 65
[16]
  Ambit profiling: CDKL5: 68
[17]
  Ambit profiling: SIK2: 27
[18]
  Ambit profiling: S6K1: 2.5
[19]
  Ambit profiling: CSNK1A1L: 100
[20]; compound 1 uM
  Ambit profiling: ABL1(T315I)-nonphosphorylated: 9.4
  Ambit profiling: ABL1(T315I)-phosphorylated: 11
[21]
  Ambit profiling: MLK1: 46
[22]; compound 1 uM
  Ambit profiling: FLT3(ITD, D835V): 0
[23]
  Ambit profiling: SGK2: 23
[24]
  Ambit profiling: NIM1: 100
[25]
  Ambit profiling: YSK1: 38
[26]
  Ambit profiling: p38-delta: 100
[27]; compound 1 uM
  Ambit profiling: RET(M918T): 0.2
[28]
  Ambit profiling: TRPM6: 83
[29]
  Ambit profiling: RSK2(Kin.Dom.1-N-terminal): 0.9
  Ambit profiling: RSK2(Kin.Dom.2-C-terminal): 100
[30]
  Ambit profiling: PDGFRB: 0.1
[31]
  Ambit profiling: MINK: 1.8
[32]
  Ambit profiling: CDK3: 33
[33]
  Ambit profiling: CDK5: 86
[34]; compound 1 uM
  Ambit profiling: RET(V804L): 10

## COc1c2c(nn1C)CN(C(C)C)C(=O)CCCn1cc(c(C(F)(F)F)n1)-c1c[nH]c3ncc-2cc13 [Compound 50, (Z)-5-isopropyl-35-methoxy-31-methyl-13-(trifluoromethyl)-11H,21H,31H-5-aza-2(3,5)-pyrrolo[2,3-b]pyridina-1(4,1),3(4,3)-dipyrazolacyclononaphan-6-one]
[1]
  Ambit profiling: JAK1(JH1domain-catalytic): 100
  Ambit profiling: JAK1(JH2domain-pseudokinase): 81
[2]
  Ambit profiling: CDK11: 49
[3]
  Ambit profiling: RIOK2: 64
[4]
  Ambit profiling: FLT1: 5.9
[5]
  Ambit profiling: MTOR: 98
[6]
  Ambit profiling: PKAC-beta: 45
[7]
  Ambit profiling: ITK: 46
[8]
  Ambit profiling: TBK1: 3.8
[9]
  Ambit profiling: CAMKK2: 5.8
[10]
  Ambit profiling: EGFR(L861Q): 17
[11]
  Ambit profiling: LTK: 8.7
[12]
  Ambit profiling: PRKCI: 42
[13]
  Ambit profiling: PIK3CD: 94
[14]
  Ambit profiling: IKK-beta: 87
[15]
  Ambit profiling: EGFR(T790M): 32
[16]
  Ambit profiling: CDKL5: 100
[17]
  Ambit profiling: SIK2: 32
[18]
  Ambit profiling: S6K1: 8.6
[19]
  Ambit profiling: CSNK1A1L: 67
[20]
  Ambit profiling: ABLT(T315I)-nonphosphorylated: 8.8
  Ambit profiling: ABLT(T315I)-phosphorylated: 4.9
[21]
  Ambit profiling: MLK1: 28
[22]
  Ambit profiling: FLT3(ITD, D835V): 0.55
[23]
  Ambit profiling: SGK2: 59
[24]
  Ambit profiling: NIM1: 100
[25]
  Ambit profiling: YSK1: 25
[26]
  Ambit profiling: p38-delta: 99
[27]
  Ambit profiling: RET(M918T): 0.25
[28]
  Ambit profiling: TRPM6: 100
[29]
  Ambit profiling: RSK2(Kin.Dom.1-N-terminal): 1.2
  Ambit profiling: RSK2(Kin.Dom.2-C-terminal): 100
[30]
  Ambit profiling: PDGFRB: 0
[31]
  Ambit profiling: MINK: 0
[32]
  Ambit profiling: CDK3: 78
[33]
  Ambit profiling: CDK5: 89
[34]
  Ambit profiling: RET(V804L): 18
